{
  "source": "paper PMC10432564",
  "about": "“Pharmacological perturbation of the phase-separating protein SMNDC1” (Nature Communications, 2023)",
  "key": {"[1]": {"test_system": "SMNDC1-GFP intron 2-3, SRRM2-RFP intron 9-10, αTC1-clone", "experiment": "Fluorescence recovery after photobleaching (FRAP)", "type": "cell-based, mouse", "details": "50 µM, 15-45 min", "procedure": "For FRAP experiments, cells harboring intron-tags in SMNDC1 and SRRM2 were seeded 24 h before imaging on a Zeiss LSM 980 microscope. 15 min before imaging, medium was changed to medium without phenol red containing DRAQ5^TM 1:1000 to reduce autofluorescence and to mark nuclei. If cells were treated with compounds, these were added in the same step. After identifying a suitable cell, bleach and reference regions were defined. After taking one reference image, the bleach region was bleached 15 times for 5 milliseconds with 100% laser power at 488 nm for GFP and with 20% laser power at 546 nm for RFP. After bleaching, a new image was taken approximately every 3 s until 150 s after bleaching. Fluorescence intensities were quantified in the bleach and reference regions for every image and normalized to the intensity before bleaching."}, "SMN Tudor domain": {"target": "SMN Tudor domain (Homo sapiens, UniProt Q16637)", "sequence (Q16637 84-147)": "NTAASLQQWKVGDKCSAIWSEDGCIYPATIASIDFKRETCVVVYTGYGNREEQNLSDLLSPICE", "experiment": "AlphaScreen, SMN Tudor domain / sDMA-peptide interaction", "method": "To establish an AlphaScreen[50], we coupled donor beads to purified SMNDC1’s (or SMN’s) Tudor domain via a His-Tag and acceptor beads to a biotinylated peptide corresponding to the C-terminal region of the Small nuclear ribonucleoprotein Sm D3 containing four sDMAs (Fig. 4a). […] To identify ideal concentrations for screening, we performed a cross-titration of Tudor domains and binding peptides (Supplementary Fig. 3b).\nThe AlphaScreen was conducted in 20 mM sodium phosphate pH 6.5, 50 mM NaCl, Tween 0.01%, BSA 0.1%. Protein concentration was optimized for each batch of purified protein. Optimal concentration was chosen at the lowest concentration with ~80% of maximum signal. […] In the first step, 10 µl of the protein solution containing either SMNDC1’s or SMN’s Tudor domain coupled to a 6xHis-Tag were distributed to 384-well plates pre-spotted with compounds and controls, shaken and incubated for 30 min at RT. Afterwards, 10 µl of peptide solution was added to each well and incubated for 1 h at RT. Finally, 5 µl of a solution containing both Streptavidin Donor and nickel chelate (Ni-NTA) Acceptor beads was added and again incubated for 1 h at RT."}},
  "data": [
    {"smiles": "CN(C)S(=O)(=O)c1ccc(C(=O)Nc2nc(-c3ccccn3)cs2)cc1", "note": "[compound 1]", "values": [
      {"measurement": "recovery after photobleaching of SMNDC1 and SRRM2", "setting": "[1]", "value": "lower recovery after photobleaching"},
      {"measurement": "IC50", "setting": "SMN Tudor domain", "value": 880, "unit": "nM"}
    ]}
  ]
}
